Reference: the NIST ThermoML archive (doi:10.1016/j.jct.2017.07.011)
± gives the expanded uncertainty stated by the source.

Conditions: 100 kPa, Liquid, Vibrating tube method

SMILES	mass density (273.65 K)	mass density (274.15 K)	mass density (274.65 K)	mass density (275.15 K)	mass density (275.65 K)	mass density (276.15 K)	mass density (276.65 K)	mass density (277.15 K)	mass density (277.65 K)	mass density (278.15 K)	mass density (278.65 K)	mass density (279.15 K)	mass density (279.65 K)	mass density (280.15 K)	mass density (280.65 K)	mass density (281.15 K)	mass density (281.65 K)	mass density (282.15 K)
CCC(C)(C)O [2-methylbutan-2-ol]	826.7 ± 2 kg/m3	826.3 ± 2 kg/m3	825.8 ± 2 kg/m3	825.4 ± 2 kg/m3	824.9 ± 2 kg/m3	824.5 ± 2 kg/m3	824 ± 2 kg/m3	823.5 ± 2 kg/m3	823.1 ± 2 kg/m3	822.6 ± 2 kg/m3	822.2 ± 2 kg/m3	821.7 ± 2 kg/m3	821.3 ± 2 kg/m3	820.8 ± 2 kg/m3	820.3 ± 2 kg/m3	819.9 ± 2 kg/m3	819.4 ± 2 kg/m3	819 ± 2 kg/m3
CCC(O)CC [3-pentanol]	835.7 ± 2.1 kg/m3	835.3 ± 2.1 kg/m3	834.9 ± 2.1 kg/m3	834.5 ± 2.1 kg/m3	834.1 ± 2.1 kg/m3	833.7 ± 2.1 kg/m3	833.3 ± 2.1 kg/m3	832.9 ± 2.1 kg/m3	832.5 ± 2.1 kg/m3	832.1 ± 2.1 kg/m3	831.7 ± 2.1 kg/m3	831.3 ± 2.1 kg/m3	830.9 ± 2.1 kg/m3	830.5 ± 2.1 kg/m3	830.1 ± 2.1 kg/m3	829.7 ± 2.1 kg/m3	829.3 ± 2.1 kg/m3	828.9 ± 2.1 kg/m3
CCCC(C)O (centres undefined) [pentan-2-ol]	824 ± 2.1 kg/m3	823.6 ± 2.1 kg/m3	823.2 ± 2.1 kg/m3	822.8 ± 2.1 kg/m3	822.5 ± 2.1 kg/m3	822.1 ± 2.1 kg/m3	821.7 ± 2.1 kg/m3	821.3 ± 2.1 kg/m3	820.9 ± 2.1 kg/m3	820.6 ± 2.1 kg/m3	820.2 ± 2.1 kg/m3	819.8 ± 2.1 kg/m3	819.4 ± 2.1 kg/m3	819.1 ± 2.1 kg/m3	818.7 ± 2.1 kg/m3	818.3 ± 2.1 kg/m3	817.9 ± 2.1 kg/m3	817.5 ± 2.1 kg/m3
